Values of other authors, collected in patent US6673767B1, “Gel composition and methods” (Alza Corporation, priority 1996, dated 2004).

Conditions: for Water Miscibility: solvent in water (Merck)

Q: For `O=C(OCc1ccccc1)c1ccccc1` [Benzyl Benzoate, benzyl benzoate], which “Water Miscibility” value is on record?
A: Its value is “insol. in water (Merck)”.

Q: With `CN1CCCC1=O` [NMP, N-methyl-2-pyrrolidone] as the molecule, how does the “Water Miscibility” value read?
A: The value was “misc. with water (Merck)”.

Q: With `CC(=O)OCC(COC(C)=O)OC(C)=O` [Triacetin, triacetin] as the molecule, how does the “reported solubility in water” value (solvent in water) read?
A: Its value is 7.17 grams in 100 ml of water.

Q: What about the “Water Miscibility” value of the same molecule?
A: Its value is 7% sol. in water (Merck).
